Results: patent publication US8790712B2, “Constitutional function-improving agents” (Cosmo Oil Co., Ltd., priority 2004, dated 2014)

Assays:
[1] = test system: Mice (35 to 45 weeks old, BALB/cAJc1); test: Thymus weight of aged mice after 7 days oral ALA hydrochloride (Example 1); type: in vivo, mouse; conditions: 10 mg/kg ALA hydrochloride orally once a day for 7 days, average of 5
Protocol: Mice (35 to 45 weeks old, BALB/cAJc1) preliminary raised for 1 week were injected with 10 mg of 5-aminolevulinic acid (hereinafter referred to as “ALA”) hydrochloride per kg mouse body weight once a day for 7 days continuously. ALA hydrochloride was adjusted to a concentration of […] with distilled water and orally administered to the mice. After the test, each mouse was sacrificed and the weight of its thymus was measured. The test was carried out using 5 mice per 1 plot, and their values were shown by average value.

[2] = test system: Mice (35 to 45 weeks old, BALB/cAJc1); test: Rotary exercise quantity measuring device, rotations within 16 hours (Example 6); type: in vivo, mouse
Protocol: Mice (35 to 45 weeks old, BALB/cAJc1) preliminary raised for 1 week were injected with 10 mg of ALA hydrochloride per 1 kg mouse body weight once a day for 7 days continuously. ALA hydrochloride was adjusted to a concentration of […] with distilled water and orally administered to the mice. The mouse was put into a rotary exercise quantity measuring device (rotating basket: 200 mm in diameter×50 mm in width, raising basket: W 90 mm×D 220 mm×H 90 mm, manufactured by Shinano Seisakusho) and the number of rotation within 16 hours was measured before and after the test. The test was carried out using 1 mouse per 1 rotary exercise quantity measuring device, and carried out on female mice using untreated 5 animals and ALA-treated 5 animals as 1 plot, and the values were shown by the average value. It was confirmed that the rotation quantity was large and the exercise capacity was improved in the plot treated with ALA.

ddY-N mouse = test: Body weight gain of young mice over 28 days of administration (Example 7); type: in vivo
Protocol: A total of 120 animals (60 animals for each of male and female) of about 4 weeks old of ddY-N mouse produced by Nippon Ikagaku Dobutsu Shizai Kenkyusho Co., Ltd. was purchased and subjected to 1 week of medical inspection to confirm that their healthy state is normal, and then used in the test. The test plots were set to a total of 4 plots of a control plot in which distilled water for injection is administered into the stomach using a stomach tube at a ratio of 10 ml per 1 kg body weight of the mouse to be tested for 28 continuous days, and 3 test plots in which ALA hydrochloride is administered in the same manner at respective ratios of 5 mg, 10 mg and 25 mg per 1 kg body weight of the mouse to be tested. The mice to be tested were divided into 12 groups, 1 group including 5 males or females, in such a manner that average body weight of each group became almost uniform, and 3 groups of males or females were allotted to each plot and raised for 28 days. The mice to be tested were raised by each group using a series of five stainless steel cages arranged in a raising room set to a room temperature of 23.0±2.0° C. and an irradiation time of 12 hours/day. Body weight gain was calculated by measuring individual body weight at intervals of 1 week from the start of the test.

LW·D piglets = test: Body weight gain of piglets fed ALA hydrochloride for 6 weeks (Example 8); type: in vivo, pig
Source text: LW·D piglets produced on the same day at a swinery were purchased 3 times, each time for 14 animals (each 7 animals of castrates and females), and subjected to preliminary raising for 9 to 12 days to confirm that their healthy state is normal, and then 12 animals (each 6 animals of castrates and females) were selected for each time and used in the test. The test plots were set to a total of 3 plots of a control plot in which a control feed (Table 8) without adding ALA hydrochloride is provided, and 2 test plots in which 10 ppm or 50 ppm of ALA hydrochloride is added to the feed and provided. The piglets to be tested were divided into 3 groups, each group including 4 animals (each 2 animals of castrates and females), in such a manner that distribution of body weight became almost uniform, and 1 groups was allotted to each plot and raised for 6 weeks. The swinery used in the test was an open type swinery in which a pig chamber of 1.8×2.7 m concrete floor was arranged in a row of 14 chambers, and group feeding was carried out using adjoining 3 pig chambers for each block. Rice straws were used as the bedding. A warm-keeping box was arranged in each pig chamber for 3 weeks after start of the test. The feed and drinking water were constantly provided. Body weight gain was calculated by measuring individual body weight at intervals of 1 week from the start of the test.

[3] = test system: γ-GTP (gamma glutamyl transpeptidase); test: Blood plasma γ-GTP of broiler chicks (Example 9); type: in vivo, chick
Source text: A total of 300 chicks, 150 chicks for females and males respectively, of broiler primary chicks (Chunky) were purchased. After the purchase, chicks having abnormality (weakness or dwarf) were excluded, and the rest were equipped with wing belts for individual identification and their body weights were individually measured. […] Using 15 female or male chicks (30 chicks in total) as 1 group, they were put into a Chick Gird arranged in a closed type barn, and warmed by arranging an infrared ray lamp for animal use. The Chick Gird was expanded along with the growth of chicks. The feed and drinking water were constantly provided. The test groups were set to a total of 3 groups containing a control group in which a control feed (a standard testing feed SDB No. 1 was used from the neonatal to 3 weeks old, or a standard testing feed SDB No. 2 from 3 weeks old to 7 weeks old, (both manufactured by Nippon Formula Feed Mfg Co., Ltd., Table 9) without adding ALA hydrochloride is provided, and 2 test groups of ALA-10 ppm treated group and ALA-50 ppm treated group in which 10 ppm or 50 ppm of ALA hydrochloride is added to the feed and provided, and 3 repetition plots were arranged for each group. The number of chicks to be tested in each test group was as shown in Table 10. The test period was set to 7 weeks (7 weeks old) from the neonatal (start of the added feed provision), and total body weight of females or males was measured for each repetition plot at the time of the neonatal and at intervals of 1 week thereafter. In addition, about 2 ml of blood was collected from a brachial vein (basilic vein) of each of 18 chicks (3 female or male chicks/repetition) of each group at 3 weeks old and 7 weeks old, and about 1.5 ml thereof was subjected to a coagulation preventing treatment using heparin-lithium salt and then the blood plasma was separated to inspect the items of LDH, GOT (AST), γ-GTP, ALP, total protein, albumin, globulin, total cholesterol, triglyceride, glucose, uric acid, total bilirubin, uric acid, creatinine, calcium and inorganic phosphorus.

[4] = within 16 hours, after 7 days of 10 mg/kg oral dosing
[5] = within 16 hours, before the 7 days of 10 mg/kg oral dosing

`NCC(=O)CCC(=O)O` [ALA, 5-aminolevulinic acid] was tested, and the “Thymus” value ([1]; female mice) was 0.038 g, the “Thymus” value ([1]; male mice) was 0.035 g and the “Increasing ratio before and after the test (%)” value ([2]; rotary exercise, 10 mg/kg orally once a day for 7 days) was 125%. For the same compound, the “Distance (m), after the test” value [2, 4] was 8889 m, the “Number of rotation, after the test” value [2, 4] was 14155 and the “Distance (m), before the test” value [2, 5] was 7095 m. For the same compound, the “Number of rotation, before the test” value [2, 5] was 11297, the “Growth (growth curves, body weight gain)” value (ddY-N mouse; 10 mg/kg into the stomach for 28 days, compared with control, 5 mg/kg and 25 mg/kg plots, averages of males and females) was “superior growth than other 3 plots” and the Health state (ddY-N mouse; ALA-treated groups, 5, 10 and 25 mg/kg for 28 days) was “abnormal health state was not fund”. For the same compound, the “Growth (growth curves, body weight gain)” value (LW·D piglets; 10 ppm in feed) was “superior growth than the control plot”, the “Growth (growth curves, body weight gain)” value (LW·D piglets; 50 ppm in feed) was “superior growth than the control plot” and the Health state (LW·D piglets; ALA-treated groups, 10 ppm or 50 ppm in feed) was “abnormal health state was not fund”. For the same compound, the “γ-GTP (IU/l)” value ([3]; 10 ppm in feed, 3 weeks old) was 29.7 IU/l, the “γ-GTP (IU/l)” value ([3]; 10 ppm in feed, 7 weeks old) was 29.7 IU/l and the “γ-GTP (IU/l)” value ([3]; 50 ppm in feed, 3 weeks old) was 30.0 IU/l. For the same compound, the “γ-GTP (IU/l)” value ([3]; 50 ppm in feed, 7 weeks old) was 32.7 IU/l.
